Measurements published in publication PMC8470770, “Characterization of a Primate Blood-Brain Barrier Co-Culture Model Prepared from Primary Brain Endothelial Cells, Pericytes and Astrocytes” (Pharmaceutics, 2021).
Read-outs that look alike come from different tables or passages of the source.

Assays:
[1] = in vitro; settings: cynomolgus monkey (Macaca fascicularis)
Description: To prepare the in vitro co-culture models (EPA), pericytes (2 × 10^4 cells/cm^2) were cultured on the bottom sides of collagen-coated culture inserts (Transwell clear, polyester membrane, 0.4 μm pore size, Corning Costar, NY, USA), and astrocytes (0.5 × 10^5 cell/cm^2) were seeded on the collagen-coated well of a 24-well culture plate. Cells were let to adhere overnight, and endothelial cells (2 × 10^5 cells/cm^2) were seeded on the inside of the inserts (top side of the membranes) and placed in the wells of the 24-well culture plates. An endothelial cell monolayer model (E00) was constructed by a similar method as the co-culture model, except for the procedure of seeding of pericytes and astrocytes. BBB models were maintained in RBEC medium supplemented with 550 nM hydrocortisone.
The permeability of the same 10 drugs was measured in the apical-to-basolateral (A-B) and basolateral-to-apical (B-A) directions as described in our previous study. All test compounds were dissolved in DMSO to yield a 10 mM solution, which was further diluted to 10 μM in HBSS-Hepes buffer (Hank’s Buffered Salt Solution containing 25 mM Hepes). […] The concentration of test compounds in the samples was determined by a Merck–Hitachi LaChrom HPLC with UV–VIS or a fluorescence detector (Merck, Darmstadt, Germany). […] Apparent permeability coefficients (Papp) were calculated using the following equation: Papp = (dQ/dT)/(A × C0), where dQ/dT is the cumulative amount in the receiver compartment versus time, A is the surface of the filter, and C0 is the initial concentration of the tracer in the luminal compartments.

[2] = tested on: rat BBB co-culture model (EPA); parameters: method as in PMID 22906709; settings: cited from earlier work; for Rat BBB Papp A-B: apical to basal; for Rat BBB Papp B-A: basal to apical
[3] = parameters: method as in PMID 22906709; settings: cited from earlier work
[4] = tested on: primary triple co-culture monkey BBB model; settings: cited from earlier work
[5] = Sodium fluorescein permeability (Pe) of monkey BBB mono- and co-culture models; format: in vitro ADME; settings: cynomolgus monkey (Macaca fascicularis), 10 μg/mL Na-F, read-out: endothelial permeability coefficient for sodium fluorescein (Na-F Pe)
Description: (§1) To evaluate the barrier function in different BBB models, transendothelial electrical resistance (TEER) was measured by an EVOM resistance meter and Endohm chamber (World Precision Instruments, Sarasota, FL, USA). The resistance values of blank inserts (background resistance) were subtracted from values of inserts with cells. TEER data are shown as Ω × cm^2. The permeability of sodium fluorescein (Na-F, MW: 376 Da) was also determined, and used as an index of paracellular transport. Cell culture inserts were transferred to 24-well plates containing 0.9 mL assay buffer (Dulbecco’s PBS (D-PBS) containing 0.9 mM CaCl2, 0.5 mM MgCl2, 4.5 g/L glucose, and 10 mM HEPES; pH 7.4). The luminal culture medium was replaced with 0.2 mL of assay buffer containing 10 μg/mL Na-F. Fifteen or 45 min after Na-F addition, the inserts were transferred to new wells containing the assay buffer. […] Transendothelial permeability coefficient (Pe) was calculated as previously described.

[6] = tested on: P-glycoprotein (P-gp, ABCB1); assay: Bidirectional transport of rhodamine 123 across MBECs; settings: 5 μM R123, 1 h, 37 °C; MBEC
Description: For bidirectional transport assay, the flux of 5 μM R123 in assay buffer was measured for 1 h at 37 °C in the luminal-to-abluminal and in the opposite abluminal-to-luminal directions. After measuring the R123 content in samples collected from both compartments, Pe values were calculated.

[7] = tested on: SLC35F2; parameters: method as in PMID 33144341; settings: monkey BBB kit; famotidine as inhibitor; cited from earlier work
[8] = tested on: monkey co-culture BBB model (EPA); assay: Effect of TGF-β1 on barrier integrity (TEER) in monkey co-culture BBB model (EPA); format: cell-based, Macaca fascicularis; settings: TGF-β1 1 ng/mL, 3, 6, and 12-h time points
Description: as §1

[9] = tested on: receptors for advanced glycation end-product (RAGE); settings: cited from earlier work

## Cn1c(=O)c2c(ncn2C)n(C)c1=O [Caffeine]
[1]
  Papp A→B at 10 μM: 60.5 ×10⁻⁶ cm/s
  Papp B→A at 10 μM: 65.2 ×10⁻⁶ cm/s
[2]
  Rat BBB Papp A-B: 64.95 ×10⁻⁶ cm/s
  Rat BBB Papp B-A: 59.91 ×10⁻⁶ cm/s
[3]
  Mouse In Vivo Papp: 11.11 ×10⁻⁶ cm/s
[4]
  mean Papp across the monkey BBB model: 71.7 ± 3.2 × 10^−6 cm/s

## CN/C(=N/CCSCc1nc[nH]c1C)NC#N [Cimetidine]
[1]
  Papp A→B at 10 μM: 3 ×10⁻⁶ cm/s
  Papp B→A at 10 μM: 2.88 ×10⁻⁶ cm/s
  efflux ratio at 10 μM: 0.97
[2]
  Rat BBB Papp A-B: 3.86 ×10⁻⁶ cm/s
  Rat BBB Papp B-A: 2.8 ×10⁻⁶ cm/s
  Rat BBB Efflux Ratio: 0.75
[3]
  Mouse In Vivo Papp: 0.2 ×10⁻⁶ cm/s

## C[C@H]1O[C@@H](O[C@H]2[C@@H](O)C[C@H](O[C@H]3[C@@H](O)C[C@H](O[C@H]4CC[C@@]5(C)[C@H](CC[C@@H]6[C@@H]5C[C@@H](O)[C@]5(C)[C@@H](C7=CC(=O)OC7)CC[C@]65O)C4)O[C@@H]3C)O[C@@H]2C)C[C@H](O)[C@@H]1O [Digoxin]
[3]
  Mouse In Vivo Papp: 0.1 ×10⁻⁶ cm/s

## COc1ccc2c(c1)c(CC(=O)O)c(C)n2C(=O)c1ccc(Cl)cc1 [Indomethacin]
[1]
  Papp A→B at 10 μM: 32.7 ×10⁻⁶ cm/s
  Papp B→A at 10 μM: 39.1 ×10⁻⁶ cm/s
  efflux ratio at 10 μM: 1.2
[2]
  Rat BBB Papp A-B: 33.63 ×10⁻⁶ cm/s
  Rat BBB Papp B-A: 44.07 ×10⁻⁶ cm/s
  Rat BBB Efflux Ratio: 1.31
[3]
  Mouse In Vivo Papp: 0.13 ×10⁻⁶ cm/s

## CN(C)C(=O)C(CCN1CCC(O)(c2ccc(Cl)cc2)CC1)(c1ccccc1)c1ccccc1 [Loperamide]
[2]
  Rat BBB Papp A-B: 15.57 ×10⁻⁶ cm/s
  Rat BBB Papp B-A: 21.76 ×10⁻⁶ cm/s
[3]
  Mouse In Vivo Papp: 1.05 ×10⁻⁶ cm/s

## O=C1OC2(c3ccc(O)cc3Oc3cc(O)ccc32)c2ccccc21 [Na-F, sodium fluorescein]
[5]; pH 7.4, MBEC co-culture with rat pericytes (EP0)
  Papp at 10 μg/mL: 0.74 ± 0.06 ×10⁻⁶ cm/s
[5]; pH 7.4, MBEC co-culture with rat pericytes and astrocytes (EPA)
  Papp at 10 μg/mL: 0.69 ± 0.07 ×10⁻⁶ cm/s
[5]; pH 7.4, monolayer MBEC model (E00)
  Papp at 10 μg/mL: 2.44 ± 0.04 ×10⁻⁶ cm/s

## C=C[C@H]1C[N@@]2CC[C@H]1C[C@@H]2[C@@H](O)c1ccnc2ccc(OC)cc12 [Quinidine]
[2]
  Rat BBB Papp A-B: 6.28 ×10⁻⁶ cm/s
  Rat BBB Papp B-A: 12.11 ×10⁻⁶ cm/s
[3]
  Mouse In Vivo Papp: 1.69 ×10⁻⁶ cm/s

## COC(=O)c1ccccc1-c1c2ccc(=N)cc-2oc2cc(N)ccc12 [R123, rhodamine 123]
[6]
  transport of R123 from brain side to blood side (B-A) versus opposite direction (A-B): almost four-fold higher

## CC[C@]1(O)C[C@@H]2CN(CCc3c([nH]c4ccccc34)[C@@](C(=O)OC)(c3cc4c(cc3OC)N(C)[C@H]3[C@@](O)(C(=O)OC)[C@H](OC(C)=O)[C@]5(CC)C=CCN6CC[C@]43[C@@H]65)C2)C1 [Vinblastine]
[1]
  Papp A→B at 10 μM: 1.47 ×10⁻⁶ cm/s
  Papp B→A at 10 μM: 2.14 ×10⁻⁶ cm/s
  efflux ratio at 10 μM: 1.46
[2]
  Rat BBB Papp A-B: 2.42 ×10⁻⁶ cm/s
  Rat BBB Papp B-A: 1.39 ×10⁻⁶ cm/s
  Rat BBB Efflux Ratio: 0.69
[3]
  Mouse In Vivo Papp: 1.43 ×10⁻⁶ cm/s

## COCCn1c2c([n+](Cc3cnccn3)c1C)C(=O)c1ccccc1C2=O [YM155, sepantronium bromide]
[7]
  BBB permeability and intraendothelial accumulation (SLC35F2 substrate transport): famotidine-inhibitable BBB permeability and intraendothelial accumulation

## O=C1Nc2ccc(Cl)cc2[C@@](C#CC2CC2)(C(F)(F)F)O1 [efavirenz]
[4]
  mean Papp across the monkey BBB model: 1.44e-05 cm/s

## COc1cc2c(cc1Cc1cccc(Cl)c1F)c(=O)c(C(=O)O)cn2[C@H](CO)C(C)C [elvitegravir]
[4]
  mean Papp across the monkey BBB model: 1.86e-05 cm/s

## O=c1c(O)c(-c2cc(O)c(O)c(O)c2)oc2cc(O)cc(O)c12 [myricetin]
[4]
  Papp in the monkey BBB model: 2.5 ×10⁻⁶ cm/s

## Cc1ccnc2c1NC(=O)c1cccnc1N2C1CC1 [nevirapine]
[4]
  mean Papp across the monkey BBB model: 3.2e-05 cm/s

## Cc1nnc(C(=O)NC(C)(C)c2nc(C(=O)NCc3ccc(F)cc3)c(O)c(=O)n2C)o1 [raltegravir]
[4]
  mean Papp across the monkey BBB model: 1.02e-05 cm/s

## TGF-β1: cytokine transforming growth factor β1
[8]
  decrease in TEER values compared to medium treated group: ~ 30%

## oxytocin
[9]
  reduction of blood-to-brain direction transport when RAGE was silenced by shRNA: approximately 70%
